Paper PMC6272861, “In Vitro Inhibition of Human UDP-Glucuronosyl-Transferase (UGT) Isoforms by Astaxanthin, β-Cryptoxanthin, Canthaxanthin, Lutein, and Zeaxanthin: Prediction of in Vivo Dietary Supplement-Drug Interactions” (Molecules, 2016)
Like-named read-outs stand apart in the source and are kept apart here.

Tests used:
UGT1A3 = target: T1, UGT1A3 (Homo sapiens, UniProt P35503); test: Inhibition of UGT1A3 (chenodeoxycholic acid 24-acyl-β-D-glucuronidation) in human liver microsomes; details: for Residual UGT1A3 enzyme activity: highest tested concentration 50 μM
T1 sequence (P35503 29-534): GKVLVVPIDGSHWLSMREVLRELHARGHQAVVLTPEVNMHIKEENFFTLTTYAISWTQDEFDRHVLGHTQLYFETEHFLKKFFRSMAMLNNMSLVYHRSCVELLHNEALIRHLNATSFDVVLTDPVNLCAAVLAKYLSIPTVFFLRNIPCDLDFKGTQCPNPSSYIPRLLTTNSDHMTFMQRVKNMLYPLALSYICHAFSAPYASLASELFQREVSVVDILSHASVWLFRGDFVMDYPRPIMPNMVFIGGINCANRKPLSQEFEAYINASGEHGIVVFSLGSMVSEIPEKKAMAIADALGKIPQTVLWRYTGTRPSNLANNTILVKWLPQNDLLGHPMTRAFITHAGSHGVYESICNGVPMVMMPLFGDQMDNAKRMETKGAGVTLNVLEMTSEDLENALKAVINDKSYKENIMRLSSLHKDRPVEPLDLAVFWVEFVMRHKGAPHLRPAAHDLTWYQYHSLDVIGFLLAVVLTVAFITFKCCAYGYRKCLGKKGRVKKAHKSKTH
Protocol: (§1) The formation activities of β-estradiol-3-glucuronide, chenodeoxycholic acid 24-acyl-β-D-glucuronide, trifluoperazine-N-glucuronide, imipramine-N-β-D-glucuronide, serotonin-O-glucuronide, propofol-O-glucuronide, and zidovudine-5′-glucuronide were determined to probe the activities of UGT1A1, UGT1A3, UGT1A4, UGT1A6, UGT1A9 and UGT2B7, respectively, in human liver microsomes.
(§2) In brief, the 90-µL incubation mixture, including pooled human liver microsomes (final concentration 0.25 mg/mL), 100 mM Tris buffer, 25 µg/mL alamethicin, 5 mM MgCl2, the UGT-selective substrates, and five xanthophylls (0–50 μM), were pre-incubated for 30 min on ice to allow formation of alamethicin pores. Reac2345tions were initiated by the addition of 10 μL of UDPGA (5 mM) to a final reaction volume of 0.1 mL and incubated at 37 °C for 60 min (except 30 min for UGT1A9) in a shaking water bath. After incubation, each reaction was stopped by adding 50 μL of ice-cold acetonitrile containing chlorpropamide (300 ng/mL) or theophylline (30 μg/mL or 300 μg/mL) as an internal standard. The mixtures were then centrifuged (13,000 g for 15 min at 4 °C) and 5-µL aliquots of the supernatants were injected into an LC-MS/MS system. […] All incubations were performed in triplicate, and mean values were used for analysis.
(§3) Chromatographic separations were performed on an Agilent Poroshell 120 EC-C18 column (50 mm × 4.6-mm i.d.; 2.7-μm particle size; Agilent Technologies) to quantify β-estradiol-3-glucuronide (UGT1A1), chenodeoxycholic acid 24-acyl-β-D-glucuronide (UGT1A3), trifluoperazine-N-glucuronide (UGT1A4), propofol-O-glucuronide (UGT1A9), zidovudine-5′-glucuronide (UGT2B7), and 4-methylumbelliferyl glucuronide (UGT2B15); an Agilent Poroshell 120 EC-C18 column (100 × 4.6-mm i.d.; 2.7-mm particle size) was used for quantification of serotonin-O-glucuronide (UGT1A6). The isocratic mobile phase consisted of distilled water (A) and acetonitrile containing 0.1% formic acid (B) at a ratio (v/v) of 10:90 for chenodeoxycholic acid 24-acyl-β-D-glucuronide, 30:70 for trifluoperazine-N-glucuronide and zidovudine-5′-glucuronide, 50:50 for propofol-O-glucuronide and 4-methylumbelliferyl glucuronide, 65:35 for β-estradiol-3-glucuronide, and 90:10 for serotonin-O-glucuronide, at a flow rate of 0.5 mL/min. The total run time was 4.0 min per sample for each metabolite, with the exception of serotonin-O-glucuronide (6.0 min). Peak areas for all of the analytes were automatically integrated using Analyst software (version 1.5.2, Applied Biosystems, Foster City, CA, USA).
(§4) The IC50 values were calculated via nonlinear least-squares regression analysis from plots of the logarithms of inhibitor concentration vs. the residual percentages of activities after inhibition, using WinNonlin (ver. 4.0; Pharsight, Mountain View, CA, USA).

UGT2B7 = target: T2, UGT2B7 (Homo sapiens, UniProt P16662); test: Inhibition of UGT2B7 (zidovudine-5′-glucuronidation) in human liver microsomes; details: for Residual UGT2B7 enzyme activity: highest tested concentration 50 μM
T2 sequence (P16662 24-529): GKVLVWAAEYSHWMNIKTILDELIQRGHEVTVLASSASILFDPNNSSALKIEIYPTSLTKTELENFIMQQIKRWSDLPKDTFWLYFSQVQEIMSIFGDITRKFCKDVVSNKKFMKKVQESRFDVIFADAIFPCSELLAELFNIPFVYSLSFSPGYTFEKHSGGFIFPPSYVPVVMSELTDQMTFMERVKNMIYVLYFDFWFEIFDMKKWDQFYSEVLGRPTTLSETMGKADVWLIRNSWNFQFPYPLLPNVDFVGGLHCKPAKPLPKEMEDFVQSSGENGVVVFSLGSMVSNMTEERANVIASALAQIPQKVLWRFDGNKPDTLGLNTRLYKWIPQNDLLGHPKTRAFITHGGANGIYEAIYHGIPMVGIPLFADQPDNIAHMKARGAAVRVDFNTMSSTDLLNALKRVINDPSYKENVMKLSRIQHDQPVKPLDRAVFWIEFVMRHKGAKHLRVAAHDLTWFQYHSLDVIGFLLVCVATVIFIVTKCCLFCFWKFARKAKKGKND
Protocol: as §1, §2, §3, §4

UGT1A9 = target: T3, UGT1A9 (Homo sapiens, UniProt O60656); test: Inhibition of UGT1A9 (propofol-O-glucuronidation) in human liver microsomes; details: for Residual UGT1A9 enzyme activity: highest tested concentration 50 μM
T3 sequence (O60656 26-530): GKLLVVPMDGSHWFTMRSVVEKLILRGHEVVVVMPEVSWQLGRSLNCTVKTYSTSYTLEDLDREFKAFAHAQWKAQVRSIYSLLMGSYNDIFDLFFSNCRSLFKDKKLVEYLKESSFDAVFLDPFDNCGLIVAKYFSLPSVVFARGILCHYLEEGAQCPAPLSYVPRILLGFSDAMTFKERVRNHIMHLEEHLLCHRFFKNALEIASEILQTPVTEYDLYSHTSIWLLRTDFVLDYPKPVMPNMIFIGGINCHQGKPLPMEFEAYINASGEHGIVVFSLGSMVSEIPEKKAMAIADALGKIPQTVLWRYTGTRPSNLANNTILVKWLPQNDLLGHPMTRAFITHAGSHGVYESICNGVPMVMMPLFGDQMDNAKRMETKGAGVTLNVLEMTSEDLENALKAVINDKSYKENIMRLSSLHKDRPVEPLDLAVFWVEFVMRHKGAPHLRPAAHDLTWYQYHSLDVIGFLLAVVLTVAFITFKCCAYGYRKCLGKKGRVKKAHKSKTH
Protocol: as §1, §2, §3, §4

UGT1A1 = target: T4, UGT1A1 (Homo sapiens, UniProt P22309); test: Inhibition of UGT1A1 (β-estradiol-3-glucuronidation) in human liver microsomes; details: for Residual UGT1A1 enzyme activity: highest tested concentration 50 μM
T4 sequence (P22309 26-533): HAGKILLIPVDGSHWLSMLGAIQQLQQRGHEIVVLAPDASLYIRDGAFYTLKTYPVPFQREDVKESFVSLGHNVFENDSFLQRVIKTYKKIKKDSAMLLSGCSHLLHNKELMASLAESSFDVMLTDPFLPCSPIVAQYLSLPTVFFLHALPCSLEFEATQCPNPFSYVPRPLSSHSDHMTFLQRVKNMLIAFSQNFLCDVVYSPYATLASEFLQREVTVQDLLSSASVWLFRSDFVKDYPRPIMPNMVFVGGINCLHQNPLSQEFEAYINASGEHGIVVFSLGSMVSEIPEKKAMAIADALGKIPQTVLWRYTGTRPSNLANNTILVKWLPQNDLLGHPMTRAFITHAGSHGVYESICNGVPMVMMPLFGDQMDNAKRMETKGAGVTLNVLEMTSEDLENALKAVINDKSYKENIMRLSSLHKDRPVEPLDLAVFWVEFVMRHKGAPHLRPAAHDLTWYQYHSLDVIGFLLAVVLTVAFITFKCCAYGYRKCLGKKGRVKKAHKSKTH
Protocol: as §1, §2, §3, §4

UGT1A6 = target: T5, UGT1A6 (Homo sapiens, UniProt P19224); test: Inhibition of UGT1A6 (serotonin-O-glucuronidation) in human liver microsomes; type: in vitro ADME; details: for IC50: 4000 μM serotonin, mean ± SD of triplicate, read-out: IC50 towards UGT1A6; for Residual UGT1A6 enzyme activity: highest tested concentration 50 μM
T5 construct: pooled human liver microsomes (final concentration 0.25 mg/mL); tissue Corning Life Sciences; host or cells: pooled human liver microsomes, 150 donors
T5 sequence (P19224 27-532): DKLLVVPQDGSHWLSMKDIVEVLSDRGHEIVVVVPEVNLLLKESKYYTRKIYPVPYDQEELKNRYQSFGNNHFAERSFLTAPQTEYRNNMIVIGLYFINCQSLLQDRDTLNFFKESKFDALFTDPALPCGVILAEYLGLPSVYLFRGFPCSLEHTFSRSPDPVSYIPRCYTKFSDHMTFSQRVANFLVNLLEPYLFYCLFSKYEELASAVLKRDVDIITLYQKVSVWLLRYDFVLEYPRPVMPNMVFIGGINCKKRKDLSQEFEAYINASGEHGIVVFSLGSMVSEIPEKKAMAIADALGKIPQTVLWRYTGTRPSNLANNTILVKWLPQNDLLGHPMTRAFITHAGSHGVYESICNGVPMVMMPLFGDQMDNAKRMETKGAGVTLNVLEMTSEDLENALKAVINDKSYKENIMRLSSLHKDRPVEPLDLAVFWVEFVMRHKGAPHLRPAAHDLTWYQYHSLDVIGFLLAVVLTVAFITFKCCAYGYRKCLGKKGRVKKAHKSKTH
Protocol: as §1, §2
The IC50 values were calculated via nonlinear least-squares regression analysis from plots of the logarithms of inhibitor concentration vs. the residual percentages of activities after inhibition, using WinNonlin (ver. 4.0; Pharsight, Mountain View, CA, USA). The apparent inhibitory constants (the Ki values) were estimated from fitted curves using the WinNonlin software. Inhibition data were fitted to different models of enzyme inhibition (competitive, non-competitive, uncompetitive, or mixed) using nonlinear least-squares regression analysis (WinNonlin software). The most appropriate inhibition model was selected based on goodness-of-fit criteria determined via visual inspection, by calculating correlations of determination (R^2 values), and using the corrected Akaike′s Information Criterion. For visual inspection, data were presented as Dixon plots.

[1] = read-out: IC50 towards UGT1A3, human liver microsomes, 15 μM chenodeoxycholic acid, mean ± SD of triplicate
[2] = read-out: IC50 towards UGT2B7, human liver microsomes, 100 μM zidovudine, mean ± SD of triplicate
[3] = read-out: IC50 towards UGT1A9, human liver microsomes, 100 μM propofol, mean ± SD of triplicate
[4] = read-out: IC50 towards UGT1A1, human liver microsomes, 10 μM β-estradiol, mean ± SD of triplicate

| Structure (SMILES) | IC50 (UGT1A3) [µM] | IC50 (UGT2B7) [µM] | IC50 (UGT1A9) [µM] | IC50 (UGT1A1) [µM] | IC50 (UGT1A6) [µM] | IC50 (UGT1A3; [1]) [µM] | IC50 (UGT2B7; [2]) [µM] | IC50 (UGT1A9; [3]) [µM] | IC50 (UGT1A1; [4]) [µM] | Residual UGT1A3 enzyme activity (UGT1A3; human liver microsomes) | Residual UGT2B7 enzyme activity (UGT2B7; human liver microsomes) | Residual UGT1A9 enzyme activity (UGT1A9; human liver microsomes) | Residual UGT1A1 enzyme activity (UGT1A1; human liver microsomes) | Residual UGT1A6 enzyme activity (UGT1A6) |
| --- | --- | --- | --- | --- | --- | --- | --- | --- | --- | --- | --- | --- | --- | --- |
| CC1=C[C@H](O)CC(C)(C)[C@H]1/C=C/C(C)=C/C=C/C(C)=C/C=C/C=C(C)/C=C/C=C(C)/C=C/C1=C(C)C[C@@H](O)CC1(C)C [LU, lutein] | > 50 | > 50 | > 50 | 45.5 ± 4.01 | > 50 | – | – | – | – | – | – | – | – | – |
| CC1=C(/C=C/C(C)=C/C=C/C(C)=C/C=C/C=C(C)/C=C/C=C(C)/C=C/C2=C(C)C(=O)CCC2(C)C)C(C)(C)CCC1=O [CA, canthaxanthin] | – | – | – | – | > 50 | 41.2 ± 3.14 | > 50 | > 50 | 38.5 ± 4.65 | – | – | – | – | – |
| CC1=C(/C=C/C(C)=C/C=C/C(C)=C/C=C/C=C(C)/C=C/C=C(C)/C=C/C2=C(C)C[C@@H](O)CC2(C)C)C(C)(C)CCC1 [βC, β-cryptoxanthin] | – | – | – | – | > 50 | 28.3 ± 4.4 | > 50 | > 50 | 18.8 ± 2.07 | – | – | – | – | – |
| CC1=C(/C=C/C(C)=C/C=C/C(C)=C/C=C/C=C(C)/C=C/C=C(C)/C=C/C2=C(C)C[C@@H](O)CC2(C)C)C(C)(C)C[C@H](O)C1 [ZE, zeaxanthin] | > 50 | > 50 | > 50 | > 50 | > 50 | – | – | – | – | 64.2% | greater than 80% | greater than 80% | 61.2% | greater than 80% |
| CC1=C(/C=C/C(C)=C/C=C/C(C)=C/C=C/C=C(C)/C=C/C=C(C)/C=C/C2=C(C)C(=O)[C@@H](O)CC2(C)C)C(C)(C)C[C@H](O)C1=O [AS, astaxanthin] | > 50 | > 50 | > 50 | > 50 | > 50 | – | – | – | – | greater than 80% | greater than 80% | greater than 80% | greater than 80% | greater than 80% |
